Target: T1, protein tyrosine phosphatase 1B (PTP1B) (Homo sapiens, UniProt P18031)
T1 construct: gene PTPN1; catalytic domain (Met1-Glu298) of PTP1B (ΔPTP1B)
T1 sequence (P18031 1-298): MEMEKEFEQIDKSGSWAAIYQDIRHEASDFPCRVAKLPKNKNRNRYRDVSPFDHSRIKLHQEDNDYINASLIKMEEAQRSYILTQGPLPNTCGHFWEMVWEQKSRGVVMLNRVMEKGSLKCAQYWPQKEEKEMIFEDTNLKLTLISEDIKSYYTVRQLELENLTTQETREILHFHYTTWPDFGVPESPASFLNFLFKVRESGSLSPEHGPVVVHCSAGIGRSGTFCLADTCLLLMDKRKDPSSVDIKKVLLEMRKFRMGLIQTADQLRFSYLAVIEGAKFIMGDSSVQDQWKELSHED
Test: p-NPP phosphatase assay with purified recombinant PTP1B catalytic domain, absorbance at […] nm
Format: biochemical

Q: Which IC50 does the source give for `O=c1c(O)c(-c2ccc(O)cc2)oc2cc(O)cc(O)c12` [kaempferol] here?
A: 279 µM
